Measurements taken from article PMC11131246, “Molecular determinants for brain targeting by peptides: a meta-analysis approach with experimental validation” (Fluids and Barriers of the CNS, 2024).
Where two headings read alike, the source gives them in different places. Residues, ends and D or L forms follow the SMILES beside them. No end group written: not given here. *: point of attachment. NODAGA = O=C(O)CN1CCN(CC(=O)O)CCN(C(CCC(=O)*)C(=O)O)CC1

How the values were obtained:
[1] = Analytical RP-HPLC retention time (used as indication of hydrophobicity); type: physicochemical; conditions: separate analytical RP-HPLC coupled to a γ-detector; 67Ga-NODA-GA labelled peptides
[2] = Biodistribution of 67Ga-radiolabeled peptides; design: species or system mouse; conditions: female, in vivo, iv, 100 uCi, total radioactivity, mean ± SD, n = 3; for tissue uptake at 1 h / tissue uptake at 2 min: CD1, mouse, i.v. tail vein; for tissue uptake at 2 min: 2 min post injection
Method: All animal experiments were performed in compliance with national and EU legislation for good practices on laboratory animal science. The animals were housed in a temperature and humidity-controlled environment with a 12 h light/12 h dark schedule. Biodistribution of radiolabeled peptides was performed on 7 weeks old CD1 female mice.
Animals were intravenously injected into the tail vein with 100 µL of a 25 µM saline solution of the ^67Ga-peptide with a radioactivity around 100 µCi. The mice were euthanized by cervical dislocation at 2 min and 1 h after injection. The dose administered and the radioactivity in the euthanized animals was measured using a dose calibrator (Carpintec CRC-15W, Ramsey, USA). The difference between the radioactivity in the injected and the euthanized animals was assumed to be due to excretion. Brain and tissues of interest without previous perfusion were dissected, washed, and weighed, and their radioactivity was measured using a γ counter (Hidex AMG, Hidex, Turku, Finland). The uptake in the brain and tissues of interest was calculated and expressed as a percentage of injected radioactivity dose per gram of tissue (% ID/g).

[3] = Cytotoxicity, CellTiter-Blue cell viability assay; type: cell-based; conditions: human
Method: (§1) Peptide cytotoxicity was determined using the CellTiter-Blue® cell viability assay, following a described protocol. Briefly, all cell lines were carefully harvested with trypsin–EDTA and seeded 10.000–20.000 cells/100 μL into 96-well clear flat-bottomed polystyrene plates (Corning, USA) for 24 h. After medium removal, cells were washed twice with 1X PBS, and 100 µL of previously diluted peptides (range from 0.05–100.0 µM) in the respective medium were added to cells. Then, after 24 h, cells were washed twice with 1X PBS and 20 µL of CellTiter-Blue® Reagent (diluted in 100 µL of medium) was added to each well and incubated for 3 h in culturing conditions. The fluorescence intensity was measured using Varioskan™ LUX multimode microplate reader.
(§2) IC50 values were determined using GraphPad Prism 7.0 software using a log(inhibitor) versus normalized response. Experiments were performed in triplicates on different days using three independently grown cell cultures.

[4] = Cytotoxicity, CellTiter-Blue cell viability assay; type: cell-based; conditions: human; remark: listed apart in the source
Method: as §1, §2

[5] = Cytotoxicity, CellTiter-Blue cell viability assay; type: cell-based; conditions: human; remark: listed apart in the source
Method: as §1, §2

[6] = Cytotoxicity, CellTiter-Blue cell viability assay; type: cell-based; conditions: human; remark: listed apart in the source
Method: as §1, §2

[7] = Cytotoxicity, CellTiter-Blue cell viability assay; type: cell-based; conditions: human; remark: listed apart in the source
Method: as §1, §2

[8] = tested on: HBEC-5i cells; experiment: Translocation across in vitro BBB model (HBEC-5i monolayer, transwell); type: in vitro ADME, human; conditions: HBEC-5i monolayer on AF-coated PET transwell inserts (1.0 µm pores), 8 days, CF-peptide 5.0 µM in DMEM:F12 without phenol red added to apical side, 24 h, fluorescence, plate reader, mean ± SD, triplicates of three independent experiments
Method: Throughout 8 days, medium was changed every other day. On the day of the experiment, cells were washed twice with 1X PBS (137.0 mM NaCl, 2.7 mM KCl, 10.0 mM Na2HPO4, and 1.8 mM KH2PO4), and once with DMEM:F12 without phenol red. Then, CF-peptides (5.0 μM, in DMEM:F12 without phenol red) were added to the apical side of the in vitro BBB model and incubated for 24 h. Finally, samples from the apical and basolateral side were collected and fluorescence intensity analyzed using a Varioskan^TM LUX multimode microplate reader (Thermo Fisher, Spain). […] Experiments were performed in triplicates on different days using three independently grown cell cultures. Seeking experimental support for our hypothesis, we have synthesized and tested in vitro the activity of ten peptides (Table 1), selected among the 14 BBBpS entries by their lowest S score in an OLS ranking.

[9] = CellTiter-Blue, peptides 0.05–100.0 µM, 24 h, triplicates, three independent cultures
[10] = CellTiter-Blue, peptides 0.05–100.0 µM, 24 h, triplicates, three independent cultures, read-out: Cytotoxicity IC50 HeLa
[11] = CellTiter-Blue, peptides 0.05–100.0 µM, 24 h, triplicates, three independent cultures, read-out: Cytotoxicity IC50 HEK-293
[12] = read-out: Cytotoxicity IC50 HBEC-5i
[13] = CellTiter-Blue, peptides 0.05–100.0 µM, 24 h, triplicates, three independent cultures, read-out: Cytotoxicity IC50 Hs68

## CC[C@H](C)[C@H](NC(=O)CNC(=O)[C@H](CCCNC(=N)N)NC(=O)[C@H](Cc1ccc(O)cc1)NC(=O)[C@H](CS)NC(=O)[C@@H](NC(=O)[C@H](CCCNC(=N)N)NC(=O)[C@H](Cc1ccccc1)NC(=O)[C@H](CS)NC(=O)[C@H](Cc1c[nH]c2ccccc12)NC(=O)[C@H](CCCCN)NC(=O)CCC(C(=O)O)N1CCN(CC(=O)O)CCN(CC(=O)O)CC1)C(C)C)C(=O)N[C@@H](CS)C(=O)N[C@@H](Cc1ccc(O)cc1)C(=O)N[C@@H](CCCNC(=N)N)C(=O)N[C@@H](CCCNC(=N)N)C(=O)N[C@@H](CS)C(=O)N[C@@H](CCCNC(=N)N)C(N)=O (stereo partly shown) [67Ga-non-BBBpS_2, metal not drawn] ({NODAGA}-KWCFRVCYRGICYRRCR-NH2)
[1]
  HPLC tR: 12.99 min
[2]; blood, 1 h post injection, CD1 female mice, 100 µL of 25 µM 67Ga-peptide, γ counter, read-out: Tissue distribution, Blood
  tissue uptake at 1 h: 0.9 ± 0.6 %ID/g
[2]; bone, CD1 mice, read-out: Tissue distribution, Bone
  tissue uptake at 2 min: 3.7 ± 0.5 %ID/g
[2]; bone, 1 h post injection, CD1 mice, read-out: Tissue distribution, Bone
  tissue uptake at 1 h: 1.6 ± 0.1 %ID/g
[2]; brain without perfusion, 1 h post injection, CD1 female mice, γ counter, read-out: Tissue distribution, Brain (brain uptake)
  tissue uptake at 1 h: 0.13 ± 0.03 %ID/g
[2]; heart, CD1 mice, read-out: Tissue distribution, Heart
  tissue uptake at 2 min: 6 ± 0.8 %ID/g
[2]; heart, 1 h post injection, CD1 mice, read-out: Tissue distribution, Heart
  tissue uptake at 1 h: 1.7 ± 0.1 %ID/g
[2]; intestine, CD1 mice, read-out: Tissue distribution, Intestine
  tissue uptake at 2 min: 2.7 ± 0.7 %ID/g
[2]; intestine, 1 h post injection, CD1 mice, read-out: Tissue distribution, Intestine
  tissue uptake at 1 h: 1.6 ± 0.5 %ID/g
[2]; kidney, CD1 mice, read-out: Tissue distribution, Kidney
  tissue uptake at 2 min: 19.9 ± 0.4 %ID/g
[2]; kidney, 1 h post injection, CD1 mice, read-out: Tissue distribution, Kidney
  tissue uptake at 1 h: 5.4 ± 0.8 %ID/g
[2]; liver, CD1 mice, read-out: Tissue distribution, Liver
  tissue uptake at 2 min: 19.8 ± 0.7 %ID/g
[2]; liver, 1 h post injection, CD1 mice, read-out: Tissue distribution, Liver
  tissue uptake at 1 h: 22.8 ± 10.1 %ID/g
[2]; lung, CD1 mice, read-out: Tissue distribution, Lung
  tissue uptake at 2 min: 7.6 ± 1.5 %ID/g
[2]; lung, 1 h post injection, CD1 mice, read-out: Tissue distribution, Lung
  tissue uptake at 1 h: 2.4 ± 0.7 %ID/g
[2]; muscle, CD1 mice, read-out: Tissue distribution, Muscle
  tissue uptake at 2 min: 1.8 ± 0.5 %ID/g
[2]; muscle, 1 h post injection, CD1 mice, read-out: Tissue distribution, Muscle
  tissue uptake at 1 h: 1.2 ± 0.4 %ID/g
[2]; spleen, CD1 mice, read-out: Tissue distribution, Spleen
  tissue uptake at 2 min: 5.6 ± 0.4 %ID/g
[2]; spleen, 1 h post injection, CD1 mice, read-out: Tissue distribution, Spleen
  tissue uptake at 1 h: 3.7 ± 1.8 %ID/g
[2]; stomach, CD1 mice, read-out: Tissue distribution, Stomach
  tissue uptake at 2 min: 2.1 ± 0.6 %ID/g
[2]; stomach, 1 h post injection, CD1 mice, read-out: Tissue distribution, Stomach
  tissue uptake at 1 h: 1.7 ± 0.6 %ID/g
[2]; mouse, 1 h post injection, difference between radioactivity injected and in the euthanized animal, CD1 mice
  excretion (% injected dose): 13.5 ± 5.1 %ID

## CSCC[C@H](NC(=O)[C@H](CC(C)C)NC(=O)CNC(=O)[C@H](Cc1ccccc1)NC(=O)[C@H](Cc1ccccc1)NC(=O)[C@H](CCC(N)=O)NC(=O)[C@H](CCC(N)=O)NC(=O)[C@@H]1CCCN1C(=O)[C@H](CCCCN)NC(=O)[C@@H]1CCCN1C(=O)[C@@H](N)CCCN=C(N)N)C(N)=O [BBBpS_10]
[3]
  IC50 at 24 h: > 100 µM
[4]
  IC50 at 24 h: > 100 µM
[5]
  IC50 at 24 h: > 100 µM
[6]
  IC50 at 24 h: > 100 µM
[7]
  IC50 at 24 h: > 100 µM

## AGILKRW [PepH3, well-tested BBBpS standard, reference compound]
[8]
  Translocation (%) HBEC-5i: 54.0 ± 2.2%

## APWHLSSQYSRT-NH2 [BBBpS_4]
[3]
  IC50 at 24 h: > 100 µM
[4]
  IC50 at 24 h: > 100 µM
[5]
  IC50 at 24 h: > 100 µM
[6]
  IC50 at 24 h: > 100 µM
[7]
  IC50 at 24 h: > 100 µM

## EEGRLYMRYYSPTTRRYG-NH2 [BBBpS_3]
[3]; [9]
  IC50 at 24 h: > 100 µM
[4]; [10]
  IC50 at 24 h: > 100 µM
[5]; [11]
  IC50 at 24 h: > 100 µM
[6]; [12]
  IC50 at 24 h: > 100 µM
[7]; [13]
  IC50 at 24 h: > 100 µM
[8]
  Translocation (%) HBEC-5i: 35.7 ± 3.6%

## HIQLSPFSQSWR-NH2 [BBBpS_5]
[3]
  IC50 at 24 h: > 100 µM
[4]
  IC50 at 24 h: > 100 µM
[5]
  IC50 at 24 h: > 100 µM
[6]
  IC50 at 24 h: > 100 µM
[7]
  IC50 at 24 h: > 100 µM

## KKKKQPPKPKKPKTQEKKKKQPPKPKR-NH2 [non-BBBpS_1]
[3]; [9]
  IC50 at 24 h: > 100 µM
[4]; [10]
  IC50 at 24 h: > 100 µM
[5]; [11]
  IC50 at 24 h: > 100 µM
[6]; [12]
  IC50 at 24 h: > 100 µM
[7]; [13]
  IC50 at 24 h: > 100 µM
[8]
  Translocation (%) HBEC-5i: 20.0 ± 3.5%

## KYKGAIIGNIK-NH2 [BBBpS_1]
[3]
  IC50 at 24 h: > 100 µM
[4]
  IC50 at 24 h: > 100 µM
[5]
  IC50 at 24 h: > 100 µM
[6]
  IC50 at 24 h: > 100 µM
[7]
  IC50 at 24 h: > 100 µM

## KYRSGAITIGY-NH2 [BBBpS_2]
[3]
  IC50 at 24 h: > 100 µM
[4]
  IC50 at 24 h: > 100 µM
[5]
  IC50 at 24 h: > 100 µM
[6]
  IC50 at 24 h: > 100 µM
[7]
  IC50 at 24 h: > 100 µM

## LKTLTETLKELTKTLTEL-NH2 [BBBpS_7]
[3]
  IC50 at 24 h: > 100 µM
[4]
  IC50 at 24 h: > 100 µM
[5]
  IC50 at 24 h: > 100 µM
[6]
  IC50 at 24 h: > 100 µM
[7]
  IC50 at 24 h: > 100 µM

## NRPDSAQFWLHH-NH2 [BBBpS_9]
[3]
  IC50 at 24 h: > 100 µM
[4]
  IC50 at 24 h: > 100 µM
[5]
  IC50 at 24 h: > 100 µM
[6]
  IC50 at 24 h: > 100 µM
[7]
  IC50 at 24 h: > 100 µM

## YDEEGGGE-NH2 [non-BBBpS_3]
[3]
  IC50 at 24 h: > 100 µM
[4]
  IC50 at 24 h: > 100 µM
[5]
  IC50 at 24 h: > 100 µM
[6]
  IC50 at 24 h: > 100 µM
[7]
  IC50 at 24 h: > 100 µM

## YKEATSTFTNITYRGT-NH2 [BBBpS_8]
[3]
  IC50 at 24 h: > 100 µM
[4]
  IC50 at 24 h: > 100 µM
[5]
  IC50 at 24 h: > 100 µM
[6]
  IC50 at 24 h: > 100 µM
[7]
  IC50 at 24 h: > 100 µM

## YTQDFNKFHTFPQTAIGVGAP-NH2 [BBBpS_6]
[3]
  IC50 at 24 h: > 100 µM
[4]
  IC50 at 24 h: > 100 µM
[5]
  IC50 at 24 h: > 100 µM
[6]
  IC50 at 24 h: > 100 µM
[7]
  IC50 at 24 h: > 100 µM
